Where “and” joins values, the source holds several entries; their conditions need not be identical. Identical values can stand only once. Records with an inconclusive call do not appear.
Test system: CD8F1 mice, subcutaneous mammary adenocarcinoma, T/C%
Experiment: NCI In Vivo Anticancer Drug Screen. Data for tumor model Mammary Adenocarcinoma CD8F1 (subcutaneous) in CD8F1
Settings: higher = larger tumour
Summary of the method: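 Tumor-bearing mice, transplantable model; readout survival or tumor size; value = treated (T) / vehicle control (C).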

[1] = endpoint: median tumor weight change, dose: 125.0 mg/kg/injection, schedule: Q01DX001 (ip), vehicle: saline
[2] = endpoint: median tumor weight (est.), dose: 50.0 mg/kg/injection, schedule: Q07DX005 (ip), vehicle: saline with Tween-80

With `C[Si](C)(C)O/C=C1/CCOC1=O` the T/C [1] was 96 % of control, the T/C (endpoint: median tumor weight change, dose: 500.0 mg/kg/injection, schedule: Q01DX001 (ip), vehicle: saline) was 82 % of control and the T/C (endpoint: median tumor weight change, dose: 1000.0 mg/kg/injection, schedule: Q01DX001 (ip), vehicle: saline) was 72 % of control.
In the case of `CCCCNCCCNCCCNC(=O)c1csc(-c2csc(CCNC(=O)C(NC(=O)C(C)C(O)C(C)NC(=O)C(NC(=O)c3nc(C(CC(N)=O)NCC(N)C(N)=O)nc(N)c3C)C(OC3OC(CO)C(O)C(O)C3OC3OC(CO)C(O)C(OC(N)=O)C3O)c3cnc[nH]3)C(C)O)n2)n1` (stereo not given), the T/C (endpoint: median tumor weight (est.), dose: 4.0 mg/kg/injection, schedule: Q07DX005 (ip), vehicle: saline) is reported as 16 % of control, the T/C (endpoint: median tumor weight (est.), dose: 8.0 mg/kg/injection, schedule: Q07DX005 (ip), vehicle: saline) is reported as 10 % of control and the T/C (endpoint: median tumor weight (est.), dose: 16.0 mg/kg/injection, schedule: Q07DX005 (ip), vehicle: saline) is reported as 16 % of control.
`CCCCCC(=O)O[C@]1(C(C)=O)CC[C@H]2[C@@H]3CCC4=CC(=O)CC[C@]4(C)[C@H]3CC[C@@]21C` was tested, and the T/C (endpoint: median tumor weight (est.), dose: 12.5 mg/kg/injection, schedule: Q07DX005 (ip), vehicle: Klucel (hydroxypropylcellulose) (HPC)) was 95 % of control, the T/C (endpoint: median tumor weight (est.), dose: 25.0 mg/kg/injection, schedule: Q07DX005 (ip), vehicle: Klucel (hydroxypropylcellulose) (HPC)) was 90 % of control and the T/C (endpoint: median tumor weight (est.), dose: 50.0 mg/kg/injection, schedule: Q07DX005 (ip), vehicle: Klucel (hydroxypropylcellulose) (HPC)) was 101 % of control. The T/C (endpoint: median tumor weight (est.), dose: 100.0 mg/kg/injection, schedule: Q07DX005 (ip), vehicle: Klucel (hydroxypropylcellulose) (HPC)) was 92 % of control, the T/C (endpoint: median tumor weight (est.), dose: 200.0 mg/kg/injection, schedule: Q07DX005 (ip), vehicle: Klucel (hydroxypropylcellulose) (HPC)) was 49 % of control and the T/C (endpoint: median tumor weight (est.), dose: 400.0 mg/kg/injection, schedule: Q07DX005 (ip), vehicle: Klucel (hydroxypropylcellulose) (HPC)) was 77 % of control.
`O=C(O)c1ccc(C(=O)O)c(C(=O)O)c1.[NH-]C1CCCCC1[NH-].[Pt+2]` was tested, and the T/C (endpoint: median tumor weight (est.), dose: 1.56 mg/kg/injection, schedule: Q07DX005 (ip), vehicle: sodium bicarbonate) was 38 % of control, the T/C (endpoint: median tumor weight (est.), dose: 3.12 mg/kg/injection, schedule: Q07DX005 (ip), vehicle: sodium bicarbonate) was 24 % of control and the T/C (endpoint: median tumor weight (est.), dose: 6.25 mg/kg/injection, schedule: Q07DX005 (ip), vehicle: sodium bicarbonate) was 11 % of control. For the same compound, the T/C (endpoint: median tumor weight (est.), dose: 12.5 mg/kg/injection, schedule: Q07DX005 (ip), vehicle: sodium bicarbonate) was 11 % of control and the T/C (endpoint: median tumor weight (est.), dose: 25.0 mg/kg/injection, schedule: Q07DX005 (ip), vehicle: sodium bicarbonate) was 32 % of control.
For `C[n+]1ccc2cc(N)c3c4ccccc4sc3c2c1`, the T/C (endpoint: median tumor weight (est.), dose: 1.56 mg/kg/injection, schedule: Q07DX004 (ip), vehicle: saline with Tween-80) was 83 % of control, the T/C (endpoint: median tumor weight (est.), dose: 3.12 mg/kg/injection, schedule: Q07DX004 (ip), vehicle: saline with Tween-80) was 121 % of control and the T/C (endpoint: median tumor weight (est.), dose: 6.25 mg/kg/injection, schedule: Q07DX004 (ip), vehicle: saline with Tween-80) was 65 % of control. For the same compound, the T/C (endpoint: median tumor weight (est.), dose: 12.5 mg/kg/injection, schedule: Q07DX004 (ip), vehicle: saline with Tween-80) was 105 % of control and the T/C (endpoint: median tumor weight (est.), dose: 25.0 mg/kg/injection, schedule: Q07DX004 (ip), vehicle: saline with Tween-80) was 110 % of control.
`COc1ccc([I+]c2cccc(Cl)c2)cc1Cl` was tested, and the T/C (endpoint: median tumor weight (est.), dose: 3.12 mg/kg/injection, schedule: Q07DX005 (ip), vehicle: saline with Tween-80) was 189 % of control, the T/C (endpoint: median tumor weight (est.), dose: 12.5 mg/kg/injection, schedule: Q07DX005 (ip), vehicle: saline with Tween-80) was 34 % of control and the T/C [2] was 111 % of control.
For `O=C(N/N=C\c1cc(Br)cc(Br)c1O)N/N=C/c1cc(Br)cc(Br)c1O`, the T/C [2] was 60 % of control, the T/C (endpoint: median tumor weight (est.), dose: 200.0 mg/kg/injection, schedule: Q07DX005 (ip), vehicle: saline with Tween-80) was 100 % of control and the T/C (endpoint: median tumor weight (est.), dose: 400.0 mg/kg/injection, schedule: Q07DX005 (ip), vehicle: saline with Tween-80) was 391 % of control.
In the case of `C[C@]12CC[C@H]3[C@@H](CCC4=C[C@@H](OC5OCC(OC6OC(CO)C(O)C(O)C6O)C(O)C5O)CC[C@@]43C=O)[C@@]1(O)CCC2C1=CC(=O)OC1` (stereo not given in full), the T/C (endpoint: median tumor weight (est.), dose: 0.62 mg/kg/injection, schedule: Q07DX005 (ip), vehicle: Klucel (hydroxypropylcellulose) (HPC)) is reported as 63 % of control, the T/C (endpoint: median tumor weight (est.), dose: 1.25 mg/kg/injection, schedule: Q07DX005 (ip), vehicle: Klucel (hydroxypropylcellulose) (HPC)) is reported as 85 % of control and 89 % of control and the T/C (endpoint: median tumor weight (est.), dose: 10.0 mg/kg/injection, schedule: Q07DX005 (ip), vehicle: Klucel (hydroxypropylcellulose) (HPC)) is reported as 93 % of control and 108 % of control. The T/C (endpoint: median tumor weight (est.), dose: 20.0 mg/kg/injection, schedule: Q07DX005 (ip), vehicle: Klucel (hydroxypropylcellulose) (HPC)) was 106 % of control and the T/C (endpoint: median tumor weight (est.), dose: 40.0 mg/kg/injection, schedule: Q07DX005 (ip), vehicle: Klucel (hydroxypropylcellulose) (HPC)) was 93 % of control.
In the case of `NC1=NC(=O)N2CC12` (stereo not given), the T/C [1] is reported as 115 % of control and the T/C (endpoint: median tumor weight change, dose: 250.0 mg/kg/injection, schedule: Q01DX001 (ip), vehicle: saline) is reported as 122 % of control.

— PubChem BioAssay AID220 (DTP/NCI, 2004)
